US6160020A, “Alkali metal and alkaline-earth metal salts of acetaminophen” (priority 1998, dated 2000)
≈ marks a conversion by molar mass, not a printed value. Counter-ions that a name gives are not always drawn. Like-named read-outs stand apart in the source and are kept apart here.

Tests used:
[1] = cited from earlier work
[2] = aqueous solubility at 22° C.; format: physicochemical; conditions: for solubility equivalent of APAP free acid: expressed as APAP free acid, approximately
Description: Accordingly, the sodium, lithium and calcium salts have solubilities equivalent to approximately 260-280, 250-270, and 10 mg/mL, respectively, of APAP free acid.

[3] = dissolution of APAP form (powder) in 0.1N hydrochloric acid, USP Dissolution Apparatus 2; format: physicochemical; conditions: paddle 50 rpm, 37° C.
Description: In 0.1N hydrochloric acid using USP Dissolution Apparatus 2 (paddle speed: 50 rpm) at 37° C., the concentration of acetaminophen at 30 seconds was as follows: […]

in vivo = assay: in vivo; set-up: species or system dog (male purebred beagles); conditions: dog, po
Description: A study was conducted in dogs to determine the bioavailability of acetaminophen sodium. The free acid form of acetaminophen was used as the control. Compressed cylindrical pellets having the following composition were prepared:
Acetaminophen Sodium--compressed neat (no excipients). Control--150 mg APAP, 30 mg microcrystalline cellulose, and 30 mg dextrates.
Eight male purebred beagles having a body weight at initial dosing of approximately 9 to 14 kg were used in the study. The dogs were fed PMI® Certified Canine Diet Meal No. 5007 and water, both ab libitum. The dogs were fasted overnight for approximately 12 hours prior to dosing and food was returned 4 hours after dosing.
The dogs were divided into two groups and each group was dosed with either acetaminophen sodium or the control (free acid APAP) pellets. A single dose equivalent to 300 mg of acetaminophen free acid was administered via an oral gavage using a stomach tube. Each dose was followed by 20 mL of water. After a period of one week, the each group was dosed again, but with the other form of acetaminophen. Twelve blood samples were collected form each dog on each dosing day (1 prior to dosing and 11 thereafter). The plasma was separated and tested for acetaminophen.

[4] = stability of anionic form of APAP in aqueous solution; format: physicochemical; conditions: pH>11
Description: The lack of discussion on APAP salts in the scientific literature may be due in part to the fact that the anionic form of APAP is stable in aqueous solution (pH>11) for only a short period of time (<24 h). If the salt is not quickly isolated after formation, p-aminophenolate (PAP) can form and result in discoloration of the resulting product.

Structure (SMILES) | aqueous solubility [2] [mg/mL] | concentration of acetaminophen at 30 seconds [3] | other results
CC(=O)Nc1ccc(OC(=O)CN)cc1 [APG-HBr, p-acetamidophenyl glycinate] |  |  | water solubility, fold more soluble than acetaminophen ([1]; relative to acetaminophen): five
CC(=O)Nc1ccc(OC(=O)CC(N)C(=O)O)cc1 (stereo not drawn) [BAPA-HCl, β-p-acetamidophenyl aspartate] |  |  | water solubility, fold less soluble than APAP ([1]; relative to APAP): four
CC(=O)Nc1ccc(O)cc1 [Calcium Salt, acetaminophen calcium] | 13 | 0.20 Mg/mL of APAP | solubility equivalent of APAP free acid [2]: ~10 mg/mL
CC(=O)Nc1ccc(O)cc1 [Free Acid, acetaminophen] |  | 0.02 Mg/mL of APAP | 
CC(=O)Nc1ccc(O)cc1 [I, acetaminophen sodium (C8 H8 NO2 Na.6H2 O)] | 493 |  | 
CC(=O)Nc1ccc(O)cc1 [II, acetaminophen sodium (C8 H8 NO2 Na.7H2 O)] | 541 |  | 
CC(=O)Nc1ccc(O)cc1 [III, acetaminophen calcium (C16 H16 N2 O4 Ca.2H2 O)] | 13 |  | 
CC(=O)Nc1ccc(O)cc1 [IV, acetaminophen lithium (C8 H8 NO2 Li.6H2 O)] | 455 (≈ 3010 mM) |  | aqueous solubility ([2]; listed as Example V): 472 mg/mL (≈ 3120 mM)
CC(=O)Nc1ccc(O)cc1 [Lithium Salt, acetaminophen lithium] |  | 0.32 Mg/mL of APAP | solubility equivalent of APAP free acid [2]: 250 to 270 mg/mL
CC(=O)Nc1ccc(O)cc1 [Sodium Salt, acetaminophen sodium] |  | 0.30 Mg/mL of APAP | solubility equivalent of APAP free acid [2]: 260 to 280 mg/mL; Tmax (in vivo): 16.2 ± 6 min
CC(=O)Nc1ccc(O)cc1 [anionic form of APAP] |  |  | stability in aqueous solution [4]: < 24 h
